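Following 48 hours of exposure in 96-well plates, responses at five concentrations were used to interpolate endpoints linearly. TGI: total growth inhibition.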
What was measured:
Assay in all cases: NCI anticancer screen, dose series, 48 h
786-0 renal = tested on: 786-0 renal
A498 renal = tested on: A498 renal
A549 NSCLC = tested on: A549 NSCLC
ACHN renal = tested on: ACHN renal
CAKI-1 renal = tested on: CAKI-1 renal
CCRF-CEM leukemia = tested on: CCRF-CEM leukemia
COLO 205 colon = tested on: COLO 205 colon
DLD-1 colon = tested on: DLD-1 colon
DMS 114 small cell lung = tested on: DMS 114 small cell lung
DMS 273 small cell lung = tested on: DMS 273 small cell lung
EKVX NSCLC = tested on: EKVX NSCLC
HCT-116 colon = tested on: HCT-116 colon
HCT-15 colon = tested on: HCT-15 colon
HOP-18 NSCLC = tested on: HOP-18 NSCLC
HOP-62 NSCLC = tested on: HOP-62 NSCLC
HOP-92 NSCLC = tested on: HOP-92 NSCLC
HT29 colon = tested on: HT29 colon
IGROV1 ovarian = tested on: IGROV1 ovarian
K-562 leukemia = tested on: K-562 leukemia
KM12 colon = tested on: KM12 colon
KM20L2 colon = tested on: KM20L2 colon
LOX IMVI melanoma = tested on: LOX IMVI melanoma
M19-MEL melanoma = tested on: M19-MEL melanoma
MALME-3M melanoma = tested on: MALME-3M melanoma
NCI-H23 lung = tested on: NCI-H23 lung
NCI-H460 lung = tested on: NCI-H460 lung
OVCAR-3 ovarian = tested on: OVCAR-3 ovarian
OVCAR-4 ovarian = tested on: OVCAR-4 ovarian
OVCAR-5 ovarian = tested on: OVCAR-5 ovarian
OVCAR-8 ovarian = tested on: OVCAR-8 ovarian
RPMI-8226 leukemia = tested on: RPMI-8226 leukemia
RXF 393 renal = tested on: RXF 393 renal
SF-268 CNS = tested on: SF-268 CNS
SF-295 CNS = tested on: SF-295 CNS
SF-539 CNS = tested on: SF-539 CNS
SK-MEL-2 melanoma = tested on: SK-MEL-2 melanoma
SK-MEL-28 melanoma = tested on: SK-MEL-28 melanoma
SK-MEL-5 melanoma = tested on: SK-MEL-5 melanoma
SN12C renal = tested on: SN12C renal
SNB-19 CNS = tested on: SNB-19 CNS
SNB-75 CNS = tested on: SNB-75 CNS
SNB-78 CNS = tested on: SNB-78 CNS
SR leukemia = tested on: SR leukemia
SW-620 colon = tested on: SW-620 colon
TK-10 renal = tested on: TK-10 renal
U251 CNS = tested on: U251 CNS
UACC-257 melanoma = tested on: UACC-257 melanoma
UACC-62 melanoma = tested on: UACC-62 melanoma
XF 498 CNS = tested on: XF 498 CNS
HCC-2998 colon = tested on: HCC-2998 colon
HL-60(TB) leukemia = tested on: HL-60(TB) leukemia
M14 melanoma = tested on: M14 melanoma
MOLT-4 leukemia = tested on: MOLT-4 leukemia
NCI-H226 lung = tested on: NCI-H226 lung
NCI-H522 lung = tested on: NCI-H522 lung
SK-OV-3 ovarian = tested on: SK-OV-3 ovarian
UO-31 renal = tested on: UO-31 renal

Measured: TGI

COc1ccc(C(=O)NCCC2=CCCCC2)cc1
not listed: HCC-2998 colon | HL-60(TB) leukemia | M14 melanoma | MOLT-4 leukemia | NCI-H226 lung | NCI-H522 lung | SK-OV-3 ovarian | UO-31 renal
> 100 µM: all other assays above

C1OC1C1CO1 (stereo not drawn)
64.2 µM: HL-60(TB) leukemia
not listed: A498 renal | ACHN renal | NCI-H460 lung
> 100 µM: all other assays above

From PubChem BioAssay (NCI)
